Experimental data as given in ChEMBL document CHEMBL1201862, “PubChem BioAssay data set” (2004).
One block for each molecule: values may come before it. Calls of active or inactive are those of the source.

What was measured:
[1] = target: Cytochrome P450 2C19 (Homo sapiens, UniProt P33261); experiment: Cytochrome panel assay with activity outcomes. Panel member name: p450-cyp2c19 Compounds with AC50 equal or less than 10 uM are considered active; format: functional
[2] = target: Cytochrome P450 2D6 (Homo sapiens, UniProt P10635);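 note: CYP2D6 member of a cytochrome P450 panel assay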
Cytochrome P450 2D6, sequence (P10635 whole entry): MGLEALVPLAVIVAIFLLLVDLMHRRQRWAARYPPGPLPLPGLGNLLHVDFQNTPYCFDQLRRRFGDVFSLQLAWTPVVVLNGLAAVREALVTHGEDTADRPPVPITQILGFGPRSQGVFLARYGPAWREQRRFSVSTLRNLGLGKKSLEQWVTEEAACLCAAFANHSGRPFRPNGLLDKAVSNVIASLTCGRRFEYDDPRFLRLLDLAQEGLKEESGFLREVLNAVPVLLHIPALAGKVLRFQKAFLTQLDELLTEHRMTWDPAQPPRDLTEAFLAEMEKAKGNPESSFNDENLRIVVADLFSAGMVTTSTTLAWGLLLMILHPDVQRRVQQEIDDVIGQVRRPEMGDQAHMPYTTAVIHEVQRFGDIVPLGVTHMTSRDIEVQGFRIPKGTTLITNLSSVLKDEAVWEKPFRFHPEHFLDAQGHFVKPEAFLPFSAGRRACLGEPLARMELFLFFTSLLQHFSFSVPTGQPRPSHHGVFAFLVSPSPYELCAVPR

[3] = tested on: HEK293; experiment: cells; conditions: Homo sapiens
[4] = tested on: HEK293; experiment: cells; conditions: Homo sapiens; remark: listed apart in the source
[5] = target: Mu-type opioid receptor (Homo sapiens, UniProt P35372); experiment: (§1) Counterscreen for agonists of heterodimerization of the mu 1 (OPRM1) and delta 1 (OPRD1) opioid receptors: Luminescence-based cell-based high throughput dose response assay to identify agonists of OPRM1 homodimerization.; format: functional
Mu-type opioid receptor, sequence (P35372 whole entry): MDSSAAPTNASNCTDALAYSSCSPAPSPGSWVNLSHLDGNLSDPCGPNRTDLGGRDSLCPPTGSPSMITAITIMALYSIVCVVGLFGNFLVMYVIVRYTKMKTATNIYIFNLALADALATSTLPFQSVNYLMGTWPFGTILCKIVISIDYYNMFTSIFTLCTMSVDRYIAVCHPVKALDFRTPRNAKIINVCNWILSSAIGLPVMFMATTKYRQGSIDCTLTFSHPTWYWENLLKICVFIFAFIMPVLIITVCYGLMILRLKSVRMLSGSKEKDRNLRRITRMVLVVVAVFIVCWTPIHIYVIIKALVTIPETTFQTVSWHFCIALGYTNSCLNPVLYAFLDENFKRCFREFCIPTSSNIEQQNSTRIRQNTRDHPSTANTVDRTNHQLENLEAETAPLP

[6] = target: 5-hydroxytryptamine receptor 5A (Homo sapiens, UniProt P47898); experiment: Counterscreen for agonists of OPRM1-OPRD1 heterodimerization: luminescence-based cell-based high throughput dose response assay to identify agonists of 5-hydroxytryptamine (serotonin) 5A receptor (HTR5A). [Related pubchem assays (depositor defined):AID504326, AID504355, AID504692, AID504904, AID504905]; format: functional
5-hydroxytryptamine receptor 5A, sequence (P47898 whole entry): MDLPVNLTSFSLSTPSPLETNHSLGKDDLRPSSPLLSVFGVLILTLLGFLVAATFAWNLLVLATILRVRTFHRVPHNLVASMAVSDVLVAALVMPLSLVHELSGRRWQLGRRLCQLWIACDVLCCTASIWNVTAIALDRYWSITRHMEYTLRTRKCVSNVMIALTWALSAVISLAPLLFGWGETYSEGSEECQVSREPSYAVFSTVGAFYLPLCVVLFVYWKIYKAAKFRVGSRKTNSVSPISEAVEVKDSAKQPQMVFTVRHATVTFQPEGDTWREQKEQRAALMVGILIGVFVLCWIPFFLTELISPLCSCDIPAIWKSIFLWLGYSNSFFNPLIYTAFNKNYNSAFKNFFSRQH

[7] = target: Delta-type opioid receptor (Homo sapiens, UniProt P41143); experiment: as §1, with “of OPRD1” for “of OPRM1”, “homodimerization. [Related pubchem assays (depositor defined):AID504326, AID504355, AID504692, AID504904, AID504905]” for “homodimerization.”; format: functional
Delta-type opioid receptor, sequence (P41143 whole entry): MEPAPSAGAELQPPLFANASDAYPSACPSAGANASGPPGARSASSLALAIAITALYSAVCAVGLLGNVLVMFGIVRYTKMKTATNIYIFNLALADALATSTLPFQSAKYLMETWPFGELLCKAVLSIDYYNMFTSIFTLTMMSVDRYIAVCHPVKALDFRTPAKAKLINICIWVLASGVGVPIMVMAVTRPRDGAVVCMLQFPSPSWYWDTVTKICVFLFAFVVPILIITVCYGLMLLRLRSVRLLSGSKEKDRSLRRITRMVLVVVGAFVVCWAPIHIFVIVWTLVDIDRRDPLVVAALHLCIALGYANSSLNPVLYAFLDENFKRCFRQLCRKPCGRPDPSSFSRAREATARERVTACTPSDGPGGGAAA

[8] = target: T1, Short transient receptor potential channel 4 (Mus musculus, UniProt Q9QUQ5); experiment: mouse TRPC4 channel activators, dose response, cell-based, HEK293 TRPC4/mu-opioid, Fluo-4 calcium (AID 434937); format: functional
T1 sequence (Q9QUQ5 whole entry): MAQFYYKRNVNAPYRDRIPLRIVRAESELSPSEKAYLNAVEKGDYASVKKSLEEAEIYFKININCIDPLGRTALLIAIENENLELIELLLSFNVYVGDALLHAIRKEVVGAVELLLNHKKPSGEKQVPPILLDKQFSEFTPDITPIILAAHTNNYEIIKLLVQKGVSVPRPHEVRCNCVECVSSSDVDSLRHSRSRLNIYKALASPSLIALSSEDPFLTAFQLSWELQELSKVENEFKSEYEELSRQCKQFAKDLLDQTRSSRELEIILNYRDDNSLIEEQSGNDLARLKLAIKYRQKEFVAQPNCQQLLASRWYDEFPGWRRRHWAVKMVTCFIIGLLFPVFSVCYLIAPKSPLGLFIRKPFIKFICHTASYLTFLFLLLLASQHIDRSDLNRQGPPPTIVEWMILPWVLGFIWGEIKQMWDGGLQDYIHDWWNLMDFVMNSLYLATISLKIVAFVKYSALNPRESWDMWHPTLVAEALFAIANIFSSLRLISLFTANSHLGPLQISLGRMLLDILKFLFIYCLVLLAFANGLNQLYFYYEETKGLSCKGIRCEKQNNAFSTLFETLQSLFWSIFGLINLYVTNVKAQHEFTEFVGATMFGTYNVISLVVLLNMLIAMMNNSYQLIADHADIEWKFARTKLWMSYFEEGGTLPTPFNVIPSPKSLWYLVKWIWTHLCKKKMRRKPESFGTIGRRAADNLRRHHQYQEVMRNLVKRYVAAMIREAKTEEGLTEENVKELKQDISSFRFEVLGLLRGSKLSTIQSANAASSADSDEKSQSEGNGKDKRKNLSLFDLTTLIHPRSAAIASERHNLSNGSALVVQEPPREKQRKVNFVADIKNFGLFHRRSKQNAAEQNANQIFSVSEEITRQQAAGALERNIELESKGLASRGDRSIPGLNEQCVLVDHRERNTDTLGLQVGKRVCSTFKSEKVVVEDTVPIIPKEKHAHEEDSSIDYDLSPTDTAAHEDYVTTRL

[9] = target: CAAX prenyl protease 2 (Homo sapiens, UniProt Q9Y256); experiment: human Rce1 protease inhibitors, dose response, biochemical, yeast membranes, quenched-peptide fluorescence, cherry-pick (AID 588849)
CAAX prenyl protease 2, sequence (Q9Y256 whole entry): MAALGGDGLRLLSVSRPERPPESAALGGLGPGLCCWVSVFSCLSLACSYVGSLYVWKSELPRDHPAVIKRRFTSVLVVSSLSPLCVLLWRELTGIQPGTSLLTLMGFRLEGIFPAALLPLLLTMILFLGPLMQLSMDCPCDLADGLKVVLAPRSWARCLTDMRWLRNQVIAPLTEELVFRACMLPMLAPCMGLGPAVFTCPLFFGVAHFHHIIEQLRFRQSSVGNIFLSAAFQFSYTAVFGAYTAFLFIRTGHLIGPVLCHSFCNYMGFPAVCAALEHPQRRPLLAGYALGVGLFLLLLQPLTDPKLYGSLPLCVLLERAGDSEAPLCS

Cytochrome P450 2C19, sequence (P33261 whole entry): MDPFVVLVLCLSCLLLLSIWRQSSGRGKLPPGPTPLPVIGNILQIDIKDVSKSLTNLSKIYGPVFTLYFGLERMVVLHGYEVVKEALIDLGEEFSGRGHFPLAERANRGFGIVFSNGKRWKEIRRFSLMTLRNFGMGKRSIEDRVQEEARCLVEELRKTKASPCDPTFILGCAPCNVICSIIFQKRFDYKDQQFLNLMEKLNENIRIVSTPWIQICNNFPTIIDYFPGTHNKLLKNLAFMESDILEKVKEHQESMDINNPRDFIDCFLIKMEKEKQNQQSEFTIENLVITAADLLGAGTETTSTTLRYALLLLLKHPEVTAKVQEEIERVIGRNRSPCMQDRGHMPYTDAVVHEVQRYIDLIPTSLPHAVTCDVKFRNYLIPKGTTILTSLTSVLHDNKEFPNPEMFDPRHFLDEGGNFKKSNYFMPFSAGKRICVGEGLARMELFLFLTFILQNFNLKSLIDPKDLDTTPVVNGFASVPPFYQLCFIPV

AC50 [1]: inconclusive
AC50 [2]: inconclusive
Structure (SMILES): C[N+](C)(N)CCC[N+](C)(C)N

Structure (SMILES): CCc1nn(C(CC)C(=O)NCCc2ccc(OC)cc2OC)c(=O)c2cc3occc3n12 (centres undefined)
EC50 [3]: > 59.6 µM (inactive)
EC50 [4]: > 59.6 µM (inactive)

EC50 [5]: 15.6 µM (inactive)
EC50 [6]: > 92.5 µM (inactive)
EC50 [7]: > 92.5 µM (inactive)
EC50 [8]: 0.0267 µM (active)
Structure (SMILES): Cc1cccc(NC(S)=NCC(c2cccnc2)N(C)C)c1 (centres undefined)

AC50 [9]: 30 µM (active)
Structure (SMILES): Cc1ccc(CNC(=O)c2cc(-c3ccccc3)nn2CC2CC(c3cccc([N+](=O)[O-])c3)=NO2)cc1 (centres undefined)
